Results on 17 compounds are retold here after patent publication US8471005B2 (Cephalon, Inc., priority 2008, dated 2013).

Where two headings read alike, the source gives them in different places.

For test [1], the target named is T1, ALK (Homo sapiens, UniProt Q9UM73).
T1 construct: host or cells: baculovirus expression system
As to the kind of experiment: ALK Kinase Assay (ELISA/TRF, PLC-γ substrate). Format: biochemical. The settings on record: read-out: ALK Potency. In a few lines:
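Read-out is time-resolved fluorescence from a Eu-N1-labeled PT66 antibody that binds phosphorylated PLC-γ, the substrate coated at 10 μg/mL in TBS. ALK at 30 ng/ml starts the reaction, which runs 15 minutes at 37° C.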
For orientation: ELISA stands for enzyme-linked immunosorbent assay.

Test [2] deals with T2, JAK2 (Homo sapiens, UniProt O60674).
T2 construct: host or cells: baculovirus expression system
The experiment in a line: Recombinant Human JAK2 Kinase Assay (TRF). Format: biochemical. Conditions: read-out: JAK2 Potency. In a few lines:
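Kinase activity of baculovirus-expressed JAK2 is followed on a surface-immobilised biotinylated peptide, with the reaction run for 20 min at room temperature in buffer containing 0.2 μM ATP and manganese. Phosphorylation is read with Eu-N1 PY100 antibody.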

Setting [3] is: ALK kinase inhibition, 1 μM ATP.
Where [4] appears, read: JAK2 kinase inhibition, 0.2 μM ATP.

T1 sequence (Q9UM73 19-1620): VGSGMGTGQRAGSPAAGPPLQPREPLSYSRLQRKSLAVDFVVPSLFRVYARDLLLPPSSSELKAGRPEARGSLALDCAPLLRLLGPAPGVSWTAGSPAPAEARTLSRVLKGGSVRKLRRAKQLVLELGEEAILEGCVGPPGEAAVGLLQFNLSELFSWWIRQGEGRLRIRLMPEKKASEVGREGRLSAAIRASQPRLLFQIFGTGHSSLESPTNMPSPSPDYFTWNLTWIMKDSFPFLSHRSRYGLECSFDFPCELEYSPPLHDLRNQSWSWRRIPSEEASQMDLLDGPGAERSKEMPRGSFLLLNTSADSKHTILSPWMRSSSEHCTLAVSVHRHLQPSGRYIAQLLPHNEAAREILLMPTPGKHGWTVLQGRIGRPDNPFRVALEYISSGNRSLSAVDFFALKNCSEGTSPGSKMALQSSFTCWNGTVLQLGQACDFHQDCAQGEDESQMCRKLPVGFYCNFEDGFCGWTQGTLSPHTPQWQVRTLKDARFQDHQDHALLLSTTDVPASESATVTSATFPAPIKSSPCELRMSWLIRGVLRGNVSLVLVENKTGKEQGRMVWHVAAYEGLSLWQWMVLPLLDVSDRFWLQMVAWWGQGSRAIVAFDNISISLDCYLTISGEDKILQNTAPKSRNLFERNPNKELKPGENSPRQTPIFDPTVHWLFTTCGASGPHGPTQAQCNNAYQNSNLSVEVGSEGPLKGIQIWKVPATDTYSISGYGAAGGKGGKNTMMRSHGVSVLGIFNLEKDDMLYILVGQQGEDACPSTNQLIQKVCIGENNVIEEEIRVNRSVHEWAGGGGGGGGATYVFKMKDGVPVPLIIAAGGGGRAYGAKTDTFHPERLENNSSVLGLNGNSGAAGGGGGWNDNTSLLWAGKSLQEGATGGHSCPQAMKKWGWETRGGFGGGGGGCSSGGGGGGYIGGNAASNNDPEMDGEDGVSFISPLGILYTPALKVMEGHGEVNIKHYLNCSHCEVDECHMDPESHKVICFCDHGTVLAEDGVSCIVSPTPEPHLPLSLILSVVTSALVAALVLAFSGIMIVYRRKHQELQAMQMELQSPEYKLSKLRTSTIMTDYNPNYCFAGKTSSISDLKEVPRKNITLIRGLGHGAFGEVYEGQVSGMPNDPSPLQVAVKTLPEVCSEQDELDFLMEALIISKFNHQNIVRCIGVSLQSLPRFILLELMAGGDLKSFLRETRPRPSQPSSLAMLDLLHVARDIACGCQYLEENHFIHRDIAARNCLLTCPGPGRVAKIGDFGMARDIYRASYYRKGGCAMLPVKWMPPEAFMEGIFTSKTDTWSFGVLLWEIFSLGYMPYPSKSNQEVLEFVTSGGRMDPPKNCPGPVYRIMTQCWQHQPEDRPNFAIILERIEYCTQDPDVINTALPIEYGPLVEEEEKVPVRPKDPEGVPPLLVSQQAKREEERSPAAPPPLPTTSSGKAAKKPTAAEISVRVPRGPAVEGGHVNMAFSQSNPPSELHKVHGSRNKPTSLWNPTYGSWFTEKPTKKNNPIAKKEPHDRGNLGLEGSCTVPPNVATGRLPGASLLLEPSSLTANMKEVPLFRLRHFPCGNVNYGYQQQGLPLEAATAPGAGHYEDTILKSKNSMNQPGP
T2 sequence (O60674 whole entry): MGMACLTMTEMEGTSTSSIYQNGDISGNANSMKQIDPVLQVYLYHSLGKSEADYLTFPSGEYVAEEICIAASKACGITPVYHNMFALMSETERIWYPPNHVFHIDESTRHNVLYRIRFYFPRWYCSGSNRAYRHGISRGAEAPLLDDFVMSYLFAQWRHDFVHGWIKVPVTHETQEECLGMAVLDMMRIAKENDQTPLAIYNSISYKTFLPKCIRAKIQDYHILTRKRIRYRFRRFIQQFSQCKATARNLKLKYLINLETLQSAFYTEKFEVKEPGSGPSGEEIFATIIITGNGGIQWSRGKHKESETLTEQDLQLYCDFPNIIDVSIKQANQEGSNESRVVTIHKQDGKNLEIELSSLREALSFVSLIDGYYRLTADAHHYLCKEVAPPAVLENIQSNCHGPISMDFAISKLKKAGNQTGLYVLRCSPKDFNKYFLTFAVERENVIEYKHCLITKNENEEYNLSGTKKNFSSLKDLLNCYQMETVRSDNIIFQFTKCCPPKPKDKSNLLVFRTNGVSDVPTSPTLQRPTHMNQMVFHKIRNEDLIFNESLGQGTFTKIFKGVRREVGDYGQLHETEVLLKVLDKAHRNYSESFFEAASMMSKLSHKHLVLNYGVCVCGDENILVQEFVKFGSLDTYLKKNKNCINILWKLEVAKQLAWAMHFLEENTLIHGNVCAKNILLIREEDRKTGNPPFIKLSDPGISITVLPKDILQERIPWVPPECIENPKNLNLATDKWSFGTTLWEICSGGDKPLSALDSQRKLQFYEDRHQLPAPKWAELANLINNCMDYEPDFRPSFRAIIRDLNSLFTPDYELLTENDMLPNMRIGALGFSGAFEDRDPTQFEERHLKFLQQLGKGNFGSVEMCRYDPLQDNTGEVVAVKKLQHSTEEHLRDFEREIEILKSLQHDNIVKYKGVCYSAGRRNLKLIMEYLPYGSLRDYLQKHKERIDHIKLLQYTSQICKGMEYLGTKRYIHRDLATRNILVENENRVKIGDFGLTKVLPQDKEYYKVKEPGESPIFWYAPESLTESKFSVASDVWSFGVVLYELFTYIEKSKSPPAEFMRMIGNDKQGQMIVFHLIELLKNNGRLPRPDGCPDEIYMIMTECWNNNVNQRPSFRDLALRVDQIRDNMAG

`COc1ccccc1-c1ccc2cnc(Nc3ccc(N4CCCC(CN5CCN(C)CC5)C4)cc3)nn12` (stereo not shown) [Example 456, [7-(2-Methoxy-phenyl)-pyrrolo[2,1-f][1,2,4]triazin-2-yl]-{4-[3-(4-methyl-piperazin-1-ylmethyl)-piperidin-1-yl]-phenyl}-amine]: the IC50 in test [1] (ALK Kinase Inhibition) and in test [2] (JAK2 Kinase Inhibition) was below 100 nM in each case.
With `CN1CCN(CC2CCCN(c3ccc(Nc4ncc5ccc(-c6ccc(S(C)(=O)=O)cc6)n5n4)cc3)C2)CC1` (stereo not shown) [Example 457, [7-(4-Methanesulfonyl-phenyl)-pyrrolo[2,1-f][1,2,4]triazin-2-yl]-{4-[3-(4-methyl-piperazin-1-ylmethyl)-piperidin-1-yl]-phenyl}-amine], the IC50 is 100 to 1000 nM in test [1] (ALK Kinase Inhibition) and below 100 nM in test [2] (JAK2 Kinase Inhibition).
Taken in the same sequence, the figures for `COc1cc(N2CCC(C(=O)N3CCN(C)CC3)CC2)ccc1Nc1ncc2ccc(-c3ccccc3OC)n2n1` [Example 458, (1-{3-Methoxy-4-[7-(2-methoxy-phenyl)-pyrrolo[2,1-f][1,2,4]triazin-2-ylamino]-phenyl}-piperidin-4-yl)-(4-methyl-piperazin-1-yl)-methanone] were below 100 nM and 100 to 1000 nM.
`COc1cc(N2CCC(C(=O)N3CCN(C)CC3)CC2)ccc1Nc1ncc2ccc(-c3ccccc3N(C)S(C)(=O)=O)n2n1` [Example 459, N-[2-(2-{2-Methoxy-4-[4-(4-methyl-piperazine-1-carbonyl)-piperidin1-yl]-phenylamino}-pyrrolo[2,1-f][1,2,4]triazin-7-yl)-phenyl]-N-methyl-methanesulfonamide]: the values for the IC50 in test [1] (ALK Kinase Inhibition) and in test [2] (JAK2 Kinase Inhibition) were below 100 nM and 100 to 1000 nM, respectively.
Take `COc1cc(N2CCC[C@H](C(=O)N3CCN(C)CC3)C2)ccc1Nc1ncc2ccc(-c3ccccc3N(C)S(C)(=O)=O)n2n1` [Example 460, N-[2-(2-{2-Methoxy-4-[(S)-3-(4-methyl-piperazine-1-carbonyl)-piperidin-1-yl]-phenylamino}-pyrrolo[2,1-f][1,2,4]triazin-7-yl)-phenyl]-N-methyl-methanesulfonamide]: the IC50 was below 100 nM in test [1] (ALK Kinase Inhibition) and 100 to 1000 nM in test [2] (JAK2 Kinase Inhibition).
Taken in the same sequence, the figures for `COc1cc(N2CCC[C@H](C(=O)N3CCN(C)CC3)C2)ccc1Nc1ncc2ccc(-c3ccccc3OC)n2n1` [Example 461, ((S)-1-{3-Methoxy-4-[7-(2-methoxy-phenyl)-pyrrolo[2,1-f][1,2,4]triazin-2-ylamino]-phenyl}-piperidin-3-yl)-(4-methyl-piperazin-1-yl)-methanone] were below 100 nM and 100 to 1000 nM.
The matching figures for `COc1cc(N2CCC[C@@H](C(=O)N3CCN(C)CC3)C2)ccc1Nc1ncc2ccc(-c3ccccc3N(C)S(C)(=O)=O)n2n1` [Example 462, N-[2-(2-{2-Methoxy-4-[(R)-3-(4-methyl-piperazine-1-carbonyl)-piperidin-1-yl]-phenylamino}-pyrrolo[2,1-f][1,2,4]triazin-7-yl)-phenyl]-N-methyl-methanesulfonamide]: below 100 nM and 100 to 1000 nM.
Taken in the same sequence, the figures for `COc1cc(N2CCC[C@@H](C(=O)N3CCN(C)CC3)C2)ccc1Nc1ncc2ccc(-c3ccccc3OC)n2n1` [Example 463, ((R)-1-{3-Methoxy-4-[7-(2-methoxy-phenyl)-pyrrolo[2,1-f][1,2,4]triazin-2-ylamino]-phenyl}-piperidin-3-yl)-(4-methyl-piperazin-1-yl)-methanone] were below 100 nM and 100 to 1000 nM.
For `COc1ccc(-c2ccc3cnc(Nc4ccc(N5CCC[C@@H](C(=O)N6CCN(C)CC6)C5)cc4OC)nn23)cn1` [Example 464, ((R)-1-{3-Methoxy-4-[7-(6-methoxy-pyridin-3-yl)-pyrrolo[2,1-f][1,2,4]triazin-2-ylamino]-phenyl}-piperidin-3-yl)-(4-methyl-piperazin-1-yl)-methanone], the figures for the IC50 in test [1] (ALK Kinase Inhibition) and in test [2] (JAK2 Kinase Inhibition) were 100 to 1000 nM and below 100 nM, respectively.
Taken in the same sequence, the figures for `COc1cc(N2CCC[C@H](CN3CCN(C)CC3)C2)ccc1Nc1ncc2ccc(-c3ccccc3N(C)S(C)(=O)=O)n2n1` [Example 465, N-[2-(2-{2-Methoxy-4-[(R)-3-(4-methyl-piperazin-1-ylmethyl)-piperidin-1-yl]-phenylamino}-pyrrolo[2,1-f][1,2,4]triazin-7-yl)-phenyl]-N-methyl-methanesulfonamide] were below 100 nM and 100 to 1000 nM.
Taken in the same sequence, the figures for `COc1cc(N2CCC[C@H](CN3CCN(C)CC3)C2)ccc1Nc1ncc2ccc(-c3ccccc3OC)n2n1` [Example 466, {2-Methoxy-4-[(R)-3-(4-methyl-piperazin-1-ylmethyl)-piperidin-1-yl]-phenyl}-[7-(2-methoxy-phenyl)-pyrrolo[2,1-f][1,2,4]triazin-2-yl]-amine] were below 100 nM and 100 to 1000 nM.
Taken in the same sequence, the figures for `COc1cc(N2CCC(CN3CCN(C)CC3)CC2)ccc1Nc1ncc2ccc(-c3ccccc3N(C)S(C)(=O)=O)n2n1` [Example 467, N-[2-(2-{2-Methoxy-4-[4-(4-methyl-piperazin-1-ylmethyl)-piperidin-1-yl]-phenylamino}-pyrrolo[2,1-f][1,2,4]triazin-7-yl)-phenyl]-N-methyl-methanesulfonamide] were below 100 nM and 100 to 1000 nM.
Take `COc1cc(N2CCC(CN3CCN(C)CC3)CC2)ccc1Nc1ncc2ccc(-c3ccccc3OC)n2n1` [Example 468, {2-Methoxy-4-[4-(4-methyl-piperazin-1-ylmethyl)-piperidin-1-yl]-phenyl}-[7-(2-methoxy-phenyl)-pyrrolo[2,1-f][1,2,4]triazin-2-yl]-amine]: the IC50 was below 100 nM in test [1] (ALK Kinase Inhibition) and 100 to 1000 nM in test [2] (JAK2 Kinase Inhibition).
Taken in the same sequence, the figures for `COc1cc(N2CCC[C@@H](CN3CCN(C)CC3)C2)ccc1Nc1ncc2ccc(-c3ccccc3N(C)S(C)(=O)=O)n2n1` [Example 469, N-[2-(2-{2-Methoxy-4-[(S)-3-(4-methyl-piperazin-1-ylmethyl)-piperidin-1-yl]-phenylamino}-pyrrolo[2,1-f][1,2,4]triazin-7-yl)-phenyl]-N-methyl-methanesulfonamide] were below 100 nM and 100 to 1000 nM.
Turning to `COc1cc(N2CCC[C@@H](CN3CCN(C)CC3)C2)ccc1Nc1ncc2ccc(-c3ccccc3OC)n2n1` [Example 470, {2-Methoxy-4-[(S)-3-(4-methyl-piperazin-1-ylmethyl)-piperidin-1-yl]-phenyl}-[7-(2-methoxy-phenyl)-pyrrolo[2,1-f][1,2,4]triazin-2-yl]-amine], the IC50 in test [1] (setting [3]) was below 100 nM; in test [2] (setting [4]), 100 to 1000 nM.
The matching figures for `COc1cc(N(C)C(=O)CN2CCN(C)CC2)ccc1Nc1ncc2ccc(-c3ccccc3N(C)S(C)(=O)=O)n2n1` [Example 471, N-(4-{7-[2-(Methanesulfonyl-methyl-amino)-phenyl]-pyrrolo[2,1-f][1,2,4]triazin-2-ylamino}-3-methoxy-phenyl)-N-methyl-2-(4-methyl-piperazin-1-yl)-acetamide]: 100 to 1000 nM and 1000 to 10000 nM.
Turning to `COc1cc(N(C)C(=O)CN2CCOCC2)ccc1Nc1ncc2ccc(-c3ccccc3OC)n2n1` [Example 472, N-{3-Methoxy-4-[7-(2-methoxy-phenyl)-pyrrolo[2,1-f][1,2,4]triazin-2-ylamino]-phenyl}-N-methyl-2-morpholin-4-yl-acetamide], the IC50 in test [1] (setting [3]) is below 100 nM; in test [2] (setting [4]), 100 to 1000 nM.
